Experiments:
[1] = test system: NCI-H358 cells (K-Ras G12C); assay: CellTiter-Glo cell viability, NCI-H358; assay type: cell-based, human; conditions: Homo sapiens, NCI-H358, 120 h, K-Ras G12C, 5-day treatment; read-out: H358 Cell Viability IC50
Summary of the method: (§1)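 Compounds were dispensed directly onto seeded cells and incubated until day 5, then plates were equilibrated at room temperature for about 30 min before CellTiter-Glo luminescence readout. Signals were normalized as (sample/average DMSO)×100 and fitted with a four-parameter logistic model.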

[2] = test system: Capan-1 cells (K-Ras G12V); assay: CellTiter-Glo cell viability, Capan-1; assay type: cell-based, human; conditions: Homo sapiens, CAPAN-1, 120 h, K-Ras G12V, 5-day treatment; read-out: Capan-1 Cell Viability IC50
Summary of the method: as §1

KRAS G12C = KRAS G12C (Homo sapiens (Human), UniProt P01116+P62937, G12C); assay: Ras-Raf disruption/FRET/MOA assay (BRAF RBD, Cyclophilin A); assay type: biochemical; conditions: read-out: KRAS G12C FRET IC50
Summary of the method: (§2)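 TR-FRET read after 1.5 h with 10 nM anti-His Eu-W1024 and 50 nM anti-GST APC, following 3 h at 25 °C of GMPPNP-loaded His6-Ras (12.5 nM), GST-BRAF RBD (50 nM) and Cyclophilin A (25 μM) with compound from 30 μM final, 10 points, 3-fold. IC50 reported; pH 7.3 HEPES, 100 mM NaCl.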

KRAS G12D = KRAS G12D (Homo sapiens (Human), UniProt P01116+P62937, G12D); assay: as above; assay type: biochemical; conditions: read-out: KRAS G12D FRET IC50
Summary of the method: as §2

KRAS G12S = KRAS G12S (Homo sapiens (Human), UniProt P01116+P62937, G12S); assay: as above; assay type: biochemical; conditions: read-out: KRAS G12S FRET IC50
Summary of the method: as §2

KRAS G12V = KRAS G12V (Homo sapiens (Human), UniProt P01116+P62937, G12V); assay: as above; assay type: biochemical; conditions: read-out: KRAS G12V FRET IC50
Summary of the method: as §2

KRAS G13C = KRAS G13C (Homo sapiens (Human), UniProt P01116+P62937, G13C); assay: as above; assay type: biochemical; conditions: read-out: KRAS G13C FRET IC50
Summary of the method: as §2

KRAS G13D = KRAS G13D (Homo sapiens (Human), UniProt P01116+P62937, G13D); assay: as above; assay type: biochemical; conditions: read-out: KRAS G13D FRET data IC50
Summary of the method: as §2

KRAS Q61H = KRAS Q61H (Homo sapiens (Human), UniProt P01116+P62937, Q61H); assay: as above; assay type: biochemical
Summary of the method: as §2

KRAS WT = KRAS WT (Homo sapiens (Human), UniProt P01116+P62937); assay: as above; assay type: biochemical; conditions: read-out: KRAS WT FRET data IC50
Summary of the method: as §2

NRAS G12C = NRAS G12C (Homo sapiens (Human), UniProt P01111+P62937, G12C); assay: as above; assay type: biochemical; conditions: read-out: NRAS G12C FRET data IC50
Summary of the method: (§3)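 First, 25 μM Cyclophilin A, 12.5 nM His6-Ras-GMPPNP and 50 nM GST-BRAF RBD are mixed with diluted compound at pH 7.3. Next, 3 h at 25° C. Then 10 nM anti-His Eu-W1024 plus 50 nM anti-GST allophycocyanin for 1.5 h before TR-FRET reading.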

NRAS Q61K = NRAS Q61K (Homo sapiens (Human), UniProt P01111+P62937, Q61K); assay: as above; assay type: biochemical
Summary of the method: as §3

NRAS Q61R = NRAS Q61R (Homo sapiens (Human), UniProt P01111+P62937, Q61R); assay: as above; assay type: biochemical
Summary of the method: as §3

NRAS WT = NRAS WT (Homo sapiens (Human), UniProt P01111+P62937); assay: as above; assay type: biochemical
Summary of the method: as §3

Chain of NRAS G12C (P01111 whole entry G12C): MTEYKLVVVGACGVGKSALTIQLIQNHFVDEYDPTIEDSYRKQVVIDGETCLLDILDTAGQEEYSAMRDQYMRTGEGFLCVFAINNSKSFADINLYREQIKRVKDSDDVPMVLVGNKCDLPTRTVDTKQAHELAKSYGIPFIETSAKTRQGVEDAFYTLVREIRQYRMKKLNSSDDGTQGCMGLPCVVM
Chain of NRAS G12C (P62937 whole entry): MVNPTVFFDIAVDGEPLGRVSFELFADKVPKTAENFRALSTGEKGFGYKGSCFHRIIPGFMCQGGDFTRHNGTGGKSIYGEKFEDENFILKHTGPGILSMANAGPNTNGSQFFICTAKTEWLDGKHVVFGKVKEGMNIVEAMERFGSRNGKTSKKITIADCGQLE
Chain of KRAS G13C (P01116 other isoform, or with tags, fused parts or gaps G13C): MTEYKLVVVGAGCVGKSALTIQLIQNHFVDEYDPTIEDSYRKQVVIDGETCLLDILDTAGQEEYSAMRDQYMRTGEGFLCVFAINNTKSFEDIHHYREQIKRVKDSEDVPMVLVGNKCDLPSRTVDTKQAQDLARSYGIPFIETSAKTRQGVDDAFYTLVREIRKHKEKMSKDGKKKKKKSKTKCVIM
Chain of KRAS G13C (P62937 whole entry): as the sequence (P62937 whole entry) above
Chain of KRAS G12V (P01116 other isoform, or with tags, fused parts or gaps G12V): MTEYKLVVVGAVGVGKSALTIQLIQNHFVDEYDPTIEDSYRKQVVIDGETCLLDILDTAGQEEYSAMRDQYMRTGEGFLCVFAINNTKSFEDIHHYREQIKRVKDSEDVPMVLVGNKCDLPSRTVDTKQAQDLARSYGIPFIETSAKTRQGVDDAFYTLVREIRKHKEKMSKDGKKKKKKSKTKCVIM
Chain of KRAS G12V (P62937 whole entry): as the sequence (P62937 whole entry) above
Chain of NRAS Q61R (P01111 whole entry Q61R): as the sequence (P01111 whole entry G12C) above, with C12G, Q61R counted along it
Chain of NRAS Q61R (P62937 whole entry): as the sequence (P62937 whole entry) above
Chain of NRAS WT (P01111 whole entry): as the sequence (P01111 whole entry G12C) above, with C12G counted along it
Chain of NRAS WT (P62937 whole entry): as the sequence (P62937 whole entry) above
Chain of NRAS Q61K (P01111 whole entry Q61K): as the sequence (P01111 whole entry G12C) above, with C12G, Q61K counted along it
Chain of NRAS Q61K (P62937 whole entry): as the sequence (P62937 whole entry) above
Chain of KRAS Q61H (P01116 other isoform, or with tags, fused parts or gaps Q61H): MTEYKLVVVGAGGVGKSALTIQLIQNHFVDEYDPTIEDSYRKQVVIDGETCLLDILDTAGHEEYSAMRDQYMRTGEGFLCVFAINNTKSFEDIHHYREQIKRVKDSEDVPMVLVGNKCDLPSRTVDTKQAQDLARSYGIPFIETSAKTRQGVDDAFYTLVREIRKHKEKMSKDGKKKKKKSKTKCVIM
Chain of KRAS Q61H (P62937 whole entry): as the sequence (P62937 whole entry) above
Chain of KRAS WT (P01116 other isoform, or with tags, fused parts or gaps): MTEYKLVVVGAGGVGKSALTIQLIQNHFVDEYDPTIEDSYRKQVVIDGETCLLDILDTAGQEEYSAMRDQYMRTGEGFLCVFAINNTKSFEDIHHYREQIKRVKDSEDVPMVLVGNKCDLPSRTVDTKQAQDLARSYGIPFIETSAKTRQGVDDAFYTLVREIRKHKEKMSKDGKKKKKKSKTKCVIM
Chain of KRAS WT (P62937 whole entry): as the sequence (P62937 whole entry) above
Chain of KRAS G12D (P01116 other isoform, or with tags, fused parts or gaps G12D): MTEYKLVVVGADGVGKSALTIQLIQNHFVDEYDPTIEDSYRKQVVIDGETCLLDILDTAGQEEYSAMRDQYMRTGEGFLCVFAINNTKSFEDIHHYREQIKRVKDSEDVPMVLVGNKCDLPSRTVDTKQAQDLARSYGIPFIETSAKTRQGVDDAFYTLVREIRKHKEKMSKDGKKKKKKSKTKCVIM
Chain of KRAS G12D (P62937 whole entry): as the sequence (P62937 whole entry) above
Chain of KRAS G12S (P01116 other isoform, or with tags, fused parts or gaps G12S): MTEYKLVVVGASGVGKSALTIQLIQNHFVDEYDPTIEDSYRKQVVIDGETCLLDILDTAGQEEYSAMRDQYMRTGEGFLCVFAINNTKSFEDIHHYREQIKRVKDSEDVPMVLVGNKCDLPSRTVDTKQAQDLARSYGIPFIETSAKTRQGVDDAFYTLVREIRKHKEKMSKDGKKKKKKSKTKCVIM
Chain of KRAS G12S (P62937 whole entry): as the sequence (P62937 whole entry) above
Chain of KRAS G12C (P01116-2 other isoform, or with tags, fused parts or gaps G12C): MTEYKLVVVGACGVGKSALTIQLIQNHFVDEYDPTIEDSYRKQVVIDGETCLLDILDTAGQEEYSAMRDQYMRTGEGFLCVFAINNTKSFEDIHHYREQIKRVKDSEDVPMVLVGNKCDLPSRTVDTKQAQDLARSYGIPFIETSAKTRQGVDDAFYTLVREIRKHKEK
Chain of KRAS G12C (P62937 whole entry): as the sequence (P62937 whole entry) above
Chain of KRAS G13D (P01116 other isoform, or with tags, fused parts or gaps G13D): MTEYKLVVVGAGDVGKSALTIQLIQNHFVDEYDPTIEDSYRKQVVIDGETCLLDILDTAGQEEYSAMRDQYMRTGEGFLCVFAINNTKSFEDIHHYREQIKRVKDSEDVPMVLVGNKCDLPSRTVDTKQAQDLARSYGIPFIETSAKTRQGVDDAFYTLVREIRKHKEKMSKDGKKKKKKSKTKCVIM
Chain of KRAS G13D (P62937 whole entry): as the sequence (P62937 whole entry) above

Row | SMILES | IC50 [1] | IC50 [2] | IC50 (KRAS G12C) | IC50 (KRAS G12D) | IC50 (KRAS G12S) | IC50 (KRAS G12V) | IC50 (KRAS G13C) | IC50 (KRAS G13D) | IC50 (KRAS Q61H) | IC50 (KRAS WT) | IC50 (NRAS G12C) | IC50 (NRAS Q61K) | IC50 (NRAS Q61R) | IC50 (NRAS WT)
1 | CCn1c(-c2cccnc2[C@H](C)OC)c2c3cc(ccc31)-c1csc(n1)C[C@H](NC(=O)[C@H](C(C)C)N(C)C(=O)N1[C@H](C)COC[C@@H]1C)C(=O)N1CCC[C@H](N1)C(=O)OCC(C)(C)C2 [Compound A276] | 100 to 1000 nM | 100 to 1000 nM | 100 to 1000 nM | 1000 to 10000 nM | 100 to 1000 nM | 1000 to 10000 nM | 100 to 1000 nM | 1000 to 10000 nM | 100 to 1000 nM | 100 to 1000 nM | 100 to 1000 nM | 100 to 1000 nM | 100 to 1000 nM | 100 to 1000 nM
2 | CCn1c(-c2cccnc2[C@H](C)OC)c2c3cc(ccc31)-c1csc(n1)C[C@H](NC(=O)[C@H](C(C)C)N(C)C(=O)N1CCS(=O)(=O)CC1)C(=O)N1CCC[C@H](N1)C(=O)OCC(C)(C)C2 [Compound A357] | 10 to 100 nM | 10 to 100 nM | 100 to 1000 nM | 1000 to 10000 nM | 100 to 1000 nM | 100 to 1000 nM | 100 to 1000 nM | 100 to 1000 nM | 100 to 1000 nM | 100 to 1000 nM | 10 to 100 nM | 100 to 1000 nM | 100 to 1000 nM | 100 to 1000 nM
3 | CCn1c(-c2cccnc2[C@H](C)OC)c2c3cc(ccc31)-c1csc(n1)C[C@H](NC(=O)[C@H](C(C)C)N(C)C(=O)[C@@H]1[C@@H]3CN(C)C[C@@H]31)C(=O)N1CCC[C@H](N1)C(=O)OCC(C)(C)C2 [Compound A447] | 100 to 1000 nM | 100 to 1000 nM | 100 to 1000 nM | 100 to 1000 nM | 100 to 1000 nM | 1000 to 10000 nM | 100 to 1000 nM | 100 to 1000 nM | 100 to 1000 nM | 100 to 1000 nM | 100 to 1000 nM | 100 to 1000 nM | 1000 to 10000 nM | 100 to 1000 nM
4 | CCn1c(-c2cccnc2[C@H](C)OC)c2c3cc(ccc31)-c1csc(n1)C[C@H](NC(=O)[C@H](C(C)C)N(C)C(=O)N1CC[C@@]3(CCNC3=O)C1)C(=O)N1CCC[C@H](N1)C(=O)OCC(C)(C)C2 [Compound A480] | 100 to 1000 nM | 100 to 1000 nM | 100 to 1000 nM | 1000 to 10000 nM | 100 to 1000 nM | 100 to 1000 nM | 100 to 1000 nM | 100 to 1000 nM | 10 to 100 nM | 100 to 1000 nM | 100 to 1000 nM | 100 to 1000 nM | 100 to 1000 nM | 100 to 1000 nM
5 | CCn1c(-c2cccnc2[C@H](C)OC)c2c3cc(ccc31)-c1cc(CF)cc(c1)C[C@H](NC(=O)[C@H](C(C)C)N(C)C(=O)[C@@H]1OCC[C@@H]1c1ccccc1)C(=O)N1CCC[C@H](N1)C(=O)OCC(C)(C)C2 [Compound A509] | 10 to 100 nM | 10 to 100 nM | 10 to 100 nM | 100 to 1000 nM | 100 to 1000 nM | 100 to 1000 nM | 10 to 100 nM | 100 to 1000 nM | 10 to 100 nM | 100 to 1000 nM | 10 to 100 nM | 100 to 1000 nM | 100 to 1000 nM | 100 to 1000 nM
6 | CCn1c(-c2cccnc2[C@H](C)OC)c2c3cc(ccc31)-c1csc(n1)C[C@H](NC(=O)[C@H](C(C)C)N(C)C(=O)N1CC3(CCOCC3)C1)C(=O)N1CCC[C@H](N1)C(=O)OCC(C)(C)C2 [Compound A521] | 10 to 100 nM | 10 to 100 nM | 100 to 1000 nM | 1000 to 10000 nM | 100 to 1000 nM | 100 to 1000 nM | 100 to 1000 nM | 1000 to 10000 nM | 100 to 1000 nM | 100 to 1000 nM | 100 to 1000 nM | 100 to 1000 nM | 100 to 1000 nM | 100 to 1000 nM

Reference: patent US20250195521A1 (Revolution Medicines, Inc., priority 2020, published 2025)
